Data as given in US7754773B2, “Composition and synthesis of new reagents for inhibition of HIV replication” (priority 2005, dated 2010).

Key:
[1] = tested on: HIV-1 (X4-tropic HIV-1 variant (HIV-1LAI)); assay: Dose-response of RT activity in HIV-1 infected H9 cells; format: cell-based; conditions: H9 cells infected with HIV-1LAI; for RT activity / infectivity, dose response: 0, 1, 5, 10, 25 or 50 μM
Description: To evaluate the efficacy of Vif inhibitor 1 on RT activity, a dose-response experiment was conducted in infected H9 cells.
Briefly, H9 cells plated at 2×10^5 per well in a 24 well plate were treated overnight with DMSO, plus 0, 1, 5, 10, 25 or 50 μM Vif inhibitor 1 (all at 0.5% DMSO) then infected with HIV-1 (X4-tropic HIV-1 variant (HIV-1LAI)) at 2×10^5 cpm RT per well. All cells were maintained in the presence of DMSO or Vif inhibitor 1 for 14-21 days and viral replication monitored by measurement of reverse transcriptase activity in culture supernatants every second day. Calculation of % relative infectivity was determined on day 7, which was previously determined to be the peak of viral infectivity. Range correction involved fitting cpm data to a 2 parameter equation where the lower limit is 0, i.e. background correction, and the upper data limit is 100, i.e. the data is range corrected. Grafit software was used for the curve fit and calculation of the I.C.50 value.

Vif [2] = biological target: T1, Vif (Human immunodeficiency virus type 1 group M subtype B, UniProt P12504); assay: Western blot of Vif in transfected 293T cell lysates; format: cell-based, HIV-1; conditions: 293T cells, pNL-Luc-E-R-, pVSV-G, APOBEC3G-HA; 3.125-50 μM; 24 hours post-drug
T1 construct: pNL4-3 (Vif) was used at 50 fmol, and APOBEC3G at 15 fmol; expressed in transfected cells
T1 sequence (P12504 whole entry): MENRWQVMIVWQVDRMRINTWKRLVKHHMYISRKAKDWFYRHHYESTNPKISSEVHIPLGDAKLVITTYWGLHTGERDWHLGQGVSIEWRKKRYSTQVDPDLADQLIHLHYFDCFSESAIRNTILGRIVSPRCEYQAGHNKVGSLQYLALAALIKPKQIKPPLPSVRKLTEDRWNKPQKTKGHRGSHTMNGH
Description: (§1) To determine the effect of Vif inhibitor 1 on expression of Vif and APOBC3G, 293T cells were transfected with pNL-Luc-E-R-, pVSV-G, and 15 fmoles APOBEC3G-HA. 4 hours post-transfection, the cells were treated with 3.125, 6.25, 12.5, 25, 50 μM Vif inhibitor 1 or DMSO equivalent as a control. Twenty-four hours post-drug addition, 293T total cell lysates (15 ug) were prepared, and protein lysates examined for APOBEC3G, Vif and, cyclin T1.

APOBEC3G [3] = assay: Western blot of APOBEC3G in transfected 293T cell lysates; format: cell-based, human; conditions: 293T cells, pNL-Luc-E-R-, pVSV-G, APOBEC3G-HA; 3.125-50 μM; 24 hours post-drug
Description: as §1

pNL-Luc-E-R- virus = assay: Infectivity of virus from treated producer cells on 293T cells; format: cell-based, HIV-1; conditions: 293T cells infected 48 hours with 1 ng virus; producer cells treated with 3.125-50 μM
Description: Infectivity was determined by infecting 293T cells for 48 hours with 1 ng virus produced from the producer cells in the experiments shown in FIG. 21A. The infectivity of the sample of virus produced without APOBEC3G was normalized to 100%, and data was representative of three independent experiments.

APOBEC3G [4] = assay: APOBEC3G-HA level co-expressed with pNL4-3-LucE-R-, Western blot; format: cell-based, human; conditions: 3.75, 7.5, 15 or 30 fmoles APOBEC3G-HA; 5 uM
Description: (§2) To evaluate the effect of Vif inhibitor 1 on levels of APOBEC3G and APOBEC3F proteins, a dose-response experiment was performed. pNL4-3-LucE-R- was co-expressed with 3.75, 7.5, 15, or 30 fmoles APOBEC3G-HA (or APOBEC3F-HA) in the absence (DMSO) or presence (5 uM) of Vif inhibitor 1. The pNL4-3-LucE-R- ΔVif with the same amounts of APOBEC3G or F in the presence of DMSO were used as controls. APOBEC3G or APOBEC3F expression was confirmed by Western blot using an α HA anti body, with cyclin T1 used as the internal control.

APOBEC3F = assay: APOBEC3F-HA level co-expressed with pNL4-3-LucE-R-, Western blot; format: cell-based; conditions: 3.75, 7.5, 15 or 30 fmoles APOBEC3F-HA; 5 uM
Description: as §2

Vif [5] = biological target: T1, Vif; assay: Vif protein levels in H9 cells infected with pNL4-3Luc-E-R-; format: cell-based, HIV-1; conditions: 12.5, 25 or 50 μM, 48 hours
Description: To evaluate the effect of Vif inhibitor 1 on levels of Vif protein, H9 cells were infected with pNL4-3Luc-E-R- using a spinoculation procedure with the virus equivalent of 1 μg pNL4-3 Luc-E-R- or Δ Vif pNL4-3 Luc-E-R- (as measured using p24 ELISA). […] H9 total cell lysates were then prepared, and 20 μg of lysate examined for the presence of cyclin T1, endogenous APOBEC3G, p24, and Vif, the latter two indicative of virus infection.

Vif [6] = biological target: T1, Vif; assay: Vif protein levels in H9 versus MT4 cells infected with pNL4-3Luc-E-R-; format: cell-based, HIV-1; conditions: 50 μM; 48 hours
Description: To determine whether there was a difference in the effect of Vif inhibitor 1 on Vif protein levels in permissive versus non-permissive cells, H9 and MT4 cells were infected using a spinoculation procedure with the virus equivalent of 1 μg pNL4-3 Luc-E-R- or Δ Vif pNL4-3 Luc-E-R- (as measured using p24 ELISA). Immediately following infection, H9 or MT4 cells were washed and incubated in complete RPMI medium with 10% FCS containing DMSO (0.5%) or 50 μM Vif inhibitor 1 (also 0.5% DMSO) for 48 hours. H9 or MT4 total cell lysates were then prepared, and 20 μg of lysate was examined for the presence of cyclin T1, endogenous APOBEC3G, p24, and Vif, the latter two being indicative of virus infection.

pNLA1-YFP (Vif activity) = biological target: T2, pNLA1-YFP (Vif activity) (Human immunodeficiency virus type 1 group M subtype B, UniProt P69723); assay: pNLA1-YFP fluorescence in transfected 293T cells; format: cell-based, HIV-1; conditions: 3.125-50 μM, with or without 15 fmoles pAPOBEC3G-HA, 24 hours
T2 construct: YFP; expressed in transfected cells; host or cells: 293T cells
T2 sequence (P69723 whole entry): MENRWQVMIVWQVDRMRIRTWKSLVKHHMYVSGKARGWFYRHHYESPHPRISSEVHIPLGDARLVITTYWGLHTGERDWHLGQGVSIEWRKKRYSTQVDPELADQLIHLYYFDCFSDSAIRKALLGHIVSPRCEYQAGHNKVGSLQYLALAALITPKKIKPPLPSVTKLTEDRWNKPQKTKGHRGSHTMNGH
Description: 293T cells transfected with 50 fmoles pNLA1-YFP or pNLA1-YFP with 15 fmoles pAPOBEC3G-HA were treated 4 HRS post-transfection with 3.125, 6.25, 12.5, 25, 50 μM Vif inhibitor 1 or DMSO equivalent (0). Twenty-four hours post-drug addition, 293T total cell lysates were prepared and normalized to equal protein amounts prior to being monitored, in triplicate, for YFP fluorescence. Curve fits for full dose responses of Vif inhibitor 1 are shown, and calculation of “% Vif activity” for concentration of compound Vif inhibitor 1 was determined using Grafit software.

COc1ccccc1NC(=O)c1ccccc1Sc1ccc([N+](=O)[O-])cc1 [Vif inhibitor 1, 2-(4-Nitrophenylthio)-N-(2-methoxyphenyl)benzamide]
RT activity / infectivity, dose response [1]: inhibits RT activity in a dose dependent manner
RT activity / infectivity, dose response ([1]; listed as Vif Inhibitor 1): dose-dependent decrease in infectivity
IC50 ([1]; Human immunodeficiency virus 1, 168 h, 0-50 μM, determined on day 7, read-out: I.C.50 of RT activity (% relative infectivity)): ~6.4 µM
Vif expression (Vif [2]): decreases Vif expression
APOBEC3G expression (APOBEC3G [3]): increases APOBEC3G expression
Infectivity of virus produced from treated producer cells (pNL-Luc-E-R- virus): decrease infectivity in a dose-dependent manner
APOBEC3G level (APOBEC3G [4]): increases
APOBEC3F level (APOBEC3F): increases
Levels of Vif protein in H9 cells (Vif [5]): significantly reduces levels of Vif protein
Levels of Vif protein, non-permissive H9 versus permissive MT4 cells (Vif [6]): significantly reduces levels of Vif protein in non-permissive H9 cells compared to permissive MT4 cells
pNLA1-YFP fluorescence (% Vif activity) (pNLA1-YFP (Vif activity)): dose-dependent decrease in pNLA1-YFP only in the presence of APOBEC3G
